Patent publication US4740505A, “Pyridazinyloxy (or thio) phenyl phosphates” (priority 1985, dated 1988)
Like-named read-outs stand apart in the source and are kept apart here.

Legend:
Spodoptera litura = experiment: Effectiveness on Spodoptera litura (mortality of 3rd instar larvae on sprayed soybean leaves); assay type: in vivo
Protocol: Effectiveness of Spondoptera litura
Each of the test compounds listed in the following table is processed into an emulsifiable concentrate in accordance with the formulation of Example 6. The emulsifiable concentrate is diluted with water (Dyne®, a spreading agent produced by Takeda Chemical Ind. Ltd., as diluted 3,000-fold) to prepare a 100 ppm aqueous solution.
Using a spray gun (nozzle pressure of 1 kg/cm^2 gauge), 20 ml of the aqueous 100 ppm solution is sprayed over soybean seedlings in a spraying chamber (on 10th day after germination) which have been raised in jiffy pots (6 cm in diameter). Two main leaves are respectively cut off from the seedlings 2 hours and 6 days after the spraying. Each of the leaves is put into an ice cream cup (diameter: 6 cm, depth: 4 cm), and 10 larvae of Spodoptera litura at the 3rd instar are put into each of the cups. The cups are left in a room at 25° C.; after 48 hours, dead larvae are counted. The test is repeated two times. The results are shown in terms of mortality (%) in Table 6. [formula]
The following compounds are used for controls.
The same compounds are used for controls also in the following Test Examples.

Tetranychus urticae = experiment: Effectiveness on Tetranychus urticae (rating of effects on kidney bean seedlings); assay type: in vivo; conditions: 500 ppm, 20 ml, rating based on percent decrease; for Rating of effect Day-2: 2nd day after treatment; for Rating of effect Day-7: 7th day after treatment
Protocol: Effectiveness on Tetranychus urticae
Each of the compounds listed in the following table is processed into an emulsifiable concentrate in accordance with the formulation of Example 6. The emulsifiable concentrate is diluted with water (Dyne®, a spreading agent produced by Takeda Chemical Ind. Ltd., as diluted 3,000-fold) to prepare a 500 ppm aqueous solution. Ten female adult of Tetranychus urticae are put into each kidney been seedling raised in a jiffy pot (6 cm in diameter), and left in a glass house at 28° C. for 24 hours. Each pot is taken out of the glass house; 20 ml of the aqueous solution as prepared above is spread over each kidney bean seedling. The jiffy pots are laid in the glass house again. Larvae and adult which are alive on the leaves are counted at the 2nd and 7th days after the spreading treatment. The test is repeated two times. The degrees are determined on the basis of percent decrease.

[1] = Toxicological test: oral acute toxicity in mice; parameters: species or system mice (ddY-SLC strained male); conditions: mouse, in vivo, five-week aged ddY-SLC male mice
[2] = 100 ppm spray, leaves cut 6 days after spraying, dead larvae counted after 48 hours, 25° C., read-out: Mortality 6th day after spraying
[3] = 48 h, read-out: Mortality 2 hours after spraying

Row | SMILES | mortality at 100 ppm (Spodoptera litura; [2]) | mortality at 100 ppm (Spodoptera litura; [3]) | Rating of effect Day-2 (Tetranychus urticae) | Rating of effect Day-7 (Tetranychus urticae) | LD50 [1]
1 | CCCSP(=S)(OCC)Oc1ccccc1Oc1ccc(Br)nn1 (stereo not shown) [compound 25] | 100% | 100% | 3 (≥90) | 3 (≥90) | > 300 mg/kg
2 | CCCSP(=O)(OCC)Oc1ccccc1Sc1ccc(Br)nn1 (stereo not shown) [compound 26] | 95% | 100% | 3 (≥90) | 3 (≥90) | ~300 mg/kg
3 | CCCSP(=S)(OCC)Oc1ccccc1Oc1ccc(C)nn1 (stereo not shown) [compound 38] | 100% | 100% | 3 (≥90) | 3 (≥90) | > 300 mg/kg
4 | CCCSP(=O)(OCC)Oc1ccccc1Oc1ccc(SCC)nn1 (stereo not shown) [compound 41] | 100% | 100% | 3 (≥90) | 3 (≥90) | ~300 mg/kg
5 | CCCSP(=S)(OCC)Oc1ccccc1Oc1ccc(SCC)nn1 (stereo not shown) [compound 42] | 100% | 100% | 3 (≥90) | 3 (≥90) | > 300 mg/kg
